This is an account of results in patent publication US9409866B2, “Pyridine-2-amides useful as CB2 agonists” (Hoffmann-La Roche Inc., priority 2012, dated 2016).

For experiment [1], the target named is human CB2 receptors (Homo sapiens (Human), UniProt P34972). Put plainly: functional cAMP assay, CHO cells expressing human CB2. The conditions noted are these: read-out: Human CB2 EC50. Type of experiment: cell-based. The method in brief:
(§1)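 Cells are seeded 17-24 h ahead, then preincubated in Krebs Ringer bicarbonate buffer with 1 mM IBMX at 30 °C. Compounds act for 30 min at 30 °C, after which lysis and cAMP detection reagents are added for 2 h at room temperature. Time-resolved FRET gives cAMP content, and EC50 values are fitted from it.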
(Cyclic AMP is a second messenger, typically raised through Gs and lowered through Gi signalling.)

Experiment [2] concerns the target human CB1 receptors (Homo sapiens (Human), UniProt P21554). Put plainly: functional cAMP assay, CHO cells expressing human CB1. The conditions noted are these: functional cAMP assay, CHO cells expressing human CB1; read-out: Human CB1 EC50. Type of experiment: cell-based. The method in brief:
as §1

Sequence of human CB1 receptors (P21554 whole entry): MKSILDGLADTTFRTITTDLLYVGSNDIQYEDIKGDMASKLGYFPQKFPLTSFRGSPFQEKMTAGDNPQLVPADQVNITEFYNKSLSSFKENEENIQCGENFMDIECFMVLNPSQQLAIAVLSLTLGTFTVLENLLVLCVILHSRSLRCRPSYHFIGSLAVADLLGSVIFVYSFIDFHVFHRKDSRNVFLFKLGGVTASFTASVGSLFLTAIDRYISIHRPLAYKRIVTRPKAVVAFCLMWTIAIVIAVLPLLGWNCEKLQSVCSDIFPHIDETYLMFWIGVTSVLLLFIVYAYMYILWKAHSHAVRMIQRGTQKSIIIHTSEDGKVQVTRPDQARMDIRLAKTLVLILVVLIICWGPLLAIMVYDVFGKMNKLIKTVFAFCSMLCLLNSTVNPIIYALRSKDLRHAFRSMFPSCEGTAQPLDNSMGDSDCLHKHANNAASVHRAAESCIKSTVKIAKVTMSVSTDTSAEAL
Sequence of human CB2 receptors (P34972 whole entry): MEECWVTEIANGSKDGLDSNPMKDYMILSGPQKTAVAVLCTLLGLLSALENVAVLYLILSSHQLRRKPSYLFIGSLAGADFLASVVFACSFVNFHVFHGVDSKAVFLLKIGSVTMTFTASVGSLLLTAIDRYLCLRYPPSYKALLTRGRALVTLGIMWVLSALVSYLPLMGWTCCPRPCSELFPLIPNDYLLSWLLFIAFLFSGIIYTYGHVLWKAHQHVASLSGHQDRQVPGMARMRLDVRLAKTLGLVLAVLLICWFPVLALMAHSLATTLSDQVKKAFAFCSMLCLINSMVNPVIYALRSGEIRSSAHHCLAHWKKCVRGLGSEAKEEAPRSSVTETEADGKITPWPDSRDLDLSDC

Broadly, the EC50 is the concentration giving half of the maximal effect. For the compound `NC(=O)CC1(NC(=O)c2cc(OCC(F)(F)F)c(N3CC(F)(F)C3)cn2)COC1` [Example 223, N-[3-(2-amino-2-oxoethyl)oxetan-3-yl]-5-(3,3-difluoroazetidin-1-yl)-4-(2,2,2-trifluoroethoxy)pyridine-2-carboxamide], the 50% effective concentration (EC50) in experiment [1] is 166 nM; in experiment [2] it was over 10000 nM.
The matching figures for `CNC(=O)CC(C)(NC(=O)c1cc(OCC(F)(F)F)c(C2CC2)cn1)C1CC1` (stereo not shown) [Example 229, 5-cyclopropyl-N-[2-cyclopropyl-4-(methylamino)-4-oxobutan-2-yl]-4-(2,2,2-trifluoroethoxy)pyridine-2-carboxamide]: 11.4 nM and over 10000 nM.
Regarding `CC(CC(N)=O)(NC(=O)c1cc(OCC(F)(F)F)c(C2CC2)cn1)C1CC1` (stereo not shown) [Example 230, N-(4-amino-2-cyclopropyl-4-oxobutan-2-yl)-5-cyclopropyl-4-(2,2,2-trifluoroethoxy)pyridine-2-carboxamide], the EC50 in experiment [1] is 0.9 nM; in experiment [2] it was over 10000 nM.
For `CNC(=O)CC1(NC(=O)c2cc(OCC(F)(F)F)c(C3CC3)cn2)COC1` [Example 231, 5-cyclopropyl-N-[3-[2-(methylamino)-2-oxoethyl]oxetan-3-yl]-4-(2,2,2-trifluoroethoxy)pyridine-2-carboxamide] the same measures were 547 nM and over 10000 nM.
As to `CNC(=O)CC1(NC(=O)c2cc(O[C@@H](C)C(F)(F)F)c(C3CC3)cn2)COC1` [Example 232, 5-cyclopropyl-N-[3-[2-(methylamino)-2-oxoethyl]oxetan-3-yl]-4-[(2S)-1,1,1-trifluoropropan-2-yl]oxypyridine-2-carboxamide], the EC50 in experiment [1] was 116 nM; in experiment [2], over 10000 nM.
For the compound `CNC(=O)CC1(NC(=O)c2cc(OCC(F)(F)F)c(N3CC(F)(F)C3)cn2)COC1` [Example 233, 5-(3,3-difluoroazetidin-1-yl)-N-[3-[2-(methylamino)-2-oxoethyl]oxetan-3-yl]-4-(2,2,2-trifluoroethoxy)pyridine-2-carboxamide], the figures for the EC50 in experiment [1] and in experiment [2] were 915 nM and over 10000 nM, respectively.
In the case of `CCC(CC)(NC(=O)c1cc(OCC2(C)COC2)c(C2CC2)cn1)C(=O)NCCCF` [Example 234, 5-cyclopropyl-N-[3-(3-fluoropropylcarbamoyl)pentan-3-yl]-4-[(3-methyloxetan-3-yl)methoxy]pyridine-2-carboxamide], the EC50 in experiment [1] was 455 nM; in experiment [2], over 10000 nM.
The matching figures for `CCC(CC)(NC(=O)c1cc(OCC2(C)COC2)c(C2CC2)cn1)C(=O)NCC(F)CCl` (stereo not shown) [Example 235, N-[3-[[3-chloro-2-fluoropropyl]carbamoyl]pentan-3-yl]-5-cyclopropyl-4-[(3-methyloxetan-3-yl)methoxy]pyridine-2-carboxamide]: 293 nM and over 10000 nM.
The matching figures for `CNC(=O)C(NC(=O)c1cc(OCC(F)(F)F)c(C2CC2)cn1)C(C)(C)O` (stereo not shown) [Example 236, 5-cyclopropyl-N-[3-hydroxy-3-methyl-1-(methylamino)-1-oxobutan-2-yl]-4-(2,2,2-trifluoroethoxy)pyridine-2-carboxamide]: 51.2 nM and over 10000 nM.
The matching figures for `CNC(=O)C(NC(=O)c1cc(OCC(F)(F)F)c(C2CC2)cn1)C(C)(C)F` (stereo not shown) [Example 237, 5-cyclopropyl-N-[3-fluoro-3-methyl-1-(methylamino)-1-oxobutan-2-yl]-4-(2,2,2-trifluoroethoxy)pyridine-2-carboxamide]: 17 nM and over 10000 nM.
Take `CNC(=O)C(NC(=O)c1cc(O[C@@H](C)C(F)(F)F)c(C2CC2)cn1)C(C)(C)O` (stereo partly drawn) [Example 238, 5-cyclopropyl-N-[3-hydroxy-3-methyl-1-(methylamino)-1-oxobutan-2-yl]-4-[(2S)-1,1,1-trifluoropropan-2-yl]oxypyridine-2-carboxamide]: the EC50 in experiment [1] was 27.4 nM; in experiment [2], over 10000 nM.
As for `C[C@H](Oc1cc(C(=O)NC(C(N)=O)C(C)(C)C)ncc1C1CC1)C(F)(F)F` (stereo partly drawn) [Example 239, N-(1-amino-3,3-dimethyl-1-oxobutan-2-yl)-5-cyclopropyl-4-[(2S)-1,1,1-trifluoropropan-2-yl]oxypyridine-2-carboxamide], the EC50 is 1.5 nM in experiment [1] and over 10000 nM in experiment [2].
As to `C[C@H](Oc1cc(C(=O)NC(C(N)=O)C(C)(C)C)ncc1C1CC1)C(F)(F)F` (stereo partly drawn) [Example 240, N-(1-amino-3,3-dimethyl-1-oxobutan-2-yl)-5-cyclopropyl-4-[(2S)-1,1,1-trifluoropropan-2-yl]oxypyridine-2-carboxamide], the half-maximal effective concentration (EC50) was 55.2 nM in experiment [1] and over 10000 nM in experiment [2].
With `Cc1nnc(C(NC(=O)c2cc(OCC(F)(F)F)c(C3CC3)cn2)C2(C)COC2)o1` (stereo not shown) [Example 245, 5-cyclopropyl-N-[(5-methyl-1,3,4-oxadiazol-2-yl)-(3-methyloxetan-3-yl)methyl]-4-(2,2,2-trifluoroethoxy)pyridine-2-carboxamide], the EC50 in experiment [1] is 997 nM; in experiment [2] it was over 10000 nM.
On to `Cc1nnc(C(NC(=O)c2cc(O[C@@H](C)C(F)(F)F)c(C3CC3)cn2)C2(C)COC2)o1` (stereo partly drawn) [Example 246, 5-cyclopropyl-N-[(5-methyl-1,3,4-oxadiazol-2-yl)-(3-methyloxetan-3-yl)methyl]-4-[(2S)-1,1,1-trifluoropropan-2-yl]oxypyridine-2-carboxamide], for which the EC50 was 186 nM in experiment [1] and over 10000 nM in experiment [2].
The matching figures for `CNC(=O)CC(C)(NC(=O)c1cc(O[C@@H](C)C(F)(F)F)c(C2CC2)cn1)C1CC1` (stereo partly drawn) [Example 247, 5-cyclopropyl-N-[2-cyclopropyl-4-(methylamino)-4-oxobutan-2-yl]-4-[(2S)-1,1,1-trifluoropropan-2-yl]oxypyridine-2-carboxamide]: 19.3 nM and over 10000 nM.
The matching figures for `C[C@H](Oc1cc(C(=O)NC(C)(CC(N)=O)C2CC2)ncc1C1CC1)C(F)(F)F` (stereo partly drawn) [Example 248, N-(4-amino-2-cyclopropyl-4-oxobutan-2-yl)-5-cyclopropyl-4-[(2S)-1,1,1-trifluoropropan-2-yl]oxypyridine-2-carboxamide]: 0.9 nM and over 10000 nM.
As to `CNC(=O)CC(C)(NC(=O)c1cc(O[C@@H](C)C(F)(F)F)c(C2CC2)cn1)C1CC1` (stereo partly drawn) [Example 249, 5-cyclopropyl-N-[2-cyclopropyl-4-(methylamino)-4-oxobutan-2-yl]-4-[(2S)-1,1,1-trifluoropropan-2-yl]oxypyridine-2-carboxamide], the values for the EC50 in experiment [1] and in experiment [2] were 1 nM and over 10000 nM, respectively.
The matching figures for `CNC(=O)CC(C)(NC(=O)c1cc(O[C@@H](C)C(F)(F)F)c(C2CC2)cn1)C1CC1` (stereo partly drawn) [Example 250, 5-cyclopropyl-N-[2-cyclopropyl-4-(methylamino)-4-oxobutan-2-yl]-4-[(2S)-1,1,1-trifluoropropan-2-yl]oxypyridine-2-carboxamide]: 33.2 nM and over 10000 nM.
The matching figures for `C[C@H](Oc1cc(C(=O)NC(C(N)=O)C2(C)COC2)ncc1C1CC1)C(F)(F)F` (stereo partly drawn) [Example 251, N-[2-amino-1-(3-methyloxetan-3-yl)-2-oxoethyl]-5-cyclopropyl-4-[(2S)-1,1,1-trifluoropropan-2-yl]oxypyridine-2-carboxamide]: 8.9 nM and over 10000 nM.
